These results are taken from patent US20240336574A1 (LATIGO BIOTHERAPEUTICS, INC., priority 2021, published 2024).

SMILES strings stand for the structures. pIC50: −log10 of the molar value. Like-named read-outs stand apart in the source and are kept apart here.

The test deals with T1, recombinant human NaV1.8 stably transfected HEK cells (Homo sapiens, UniProt Q9Y5Y9).
T1 construct: expressed in transfected cells; host or cells: HEK cells, stably transfected
Put plainly: Compound profiling on NaV1.8, human NaV1.8 cell line, SyncroPatch384PE automated patch clamp assay (Example 102, first set of compounds, Table 16). It is filed as cell-based. The note with it: human NaV1.8 HEK cells, Table 16 (first set of compounds). The method in brief: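 Automated whole-cell patch clamp on HEK cells precultured at 30 °C one day before recording; CsF-based internal, 140 mM NaCl external. 10-point curve, 20–0.001 μM final, 0.1% DMSO, 5 min exposure. IC50 for resting (P1, −120 mV hold) and inactivated (P2, after 10 s at −40 mV) block, normalized to 250 μM tetracaine and DMSO.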
Background: The patch-clamp technique gives a direct electrical read-out from membranes.

Where [1] appears, read: inactivated state block (P2 measurement), read-out: P2IC50.
Setting [2] is: resting state block (P1 measurement), read-out: P1IC50.

T1 sequence (Q9Y5Y9 whole entry): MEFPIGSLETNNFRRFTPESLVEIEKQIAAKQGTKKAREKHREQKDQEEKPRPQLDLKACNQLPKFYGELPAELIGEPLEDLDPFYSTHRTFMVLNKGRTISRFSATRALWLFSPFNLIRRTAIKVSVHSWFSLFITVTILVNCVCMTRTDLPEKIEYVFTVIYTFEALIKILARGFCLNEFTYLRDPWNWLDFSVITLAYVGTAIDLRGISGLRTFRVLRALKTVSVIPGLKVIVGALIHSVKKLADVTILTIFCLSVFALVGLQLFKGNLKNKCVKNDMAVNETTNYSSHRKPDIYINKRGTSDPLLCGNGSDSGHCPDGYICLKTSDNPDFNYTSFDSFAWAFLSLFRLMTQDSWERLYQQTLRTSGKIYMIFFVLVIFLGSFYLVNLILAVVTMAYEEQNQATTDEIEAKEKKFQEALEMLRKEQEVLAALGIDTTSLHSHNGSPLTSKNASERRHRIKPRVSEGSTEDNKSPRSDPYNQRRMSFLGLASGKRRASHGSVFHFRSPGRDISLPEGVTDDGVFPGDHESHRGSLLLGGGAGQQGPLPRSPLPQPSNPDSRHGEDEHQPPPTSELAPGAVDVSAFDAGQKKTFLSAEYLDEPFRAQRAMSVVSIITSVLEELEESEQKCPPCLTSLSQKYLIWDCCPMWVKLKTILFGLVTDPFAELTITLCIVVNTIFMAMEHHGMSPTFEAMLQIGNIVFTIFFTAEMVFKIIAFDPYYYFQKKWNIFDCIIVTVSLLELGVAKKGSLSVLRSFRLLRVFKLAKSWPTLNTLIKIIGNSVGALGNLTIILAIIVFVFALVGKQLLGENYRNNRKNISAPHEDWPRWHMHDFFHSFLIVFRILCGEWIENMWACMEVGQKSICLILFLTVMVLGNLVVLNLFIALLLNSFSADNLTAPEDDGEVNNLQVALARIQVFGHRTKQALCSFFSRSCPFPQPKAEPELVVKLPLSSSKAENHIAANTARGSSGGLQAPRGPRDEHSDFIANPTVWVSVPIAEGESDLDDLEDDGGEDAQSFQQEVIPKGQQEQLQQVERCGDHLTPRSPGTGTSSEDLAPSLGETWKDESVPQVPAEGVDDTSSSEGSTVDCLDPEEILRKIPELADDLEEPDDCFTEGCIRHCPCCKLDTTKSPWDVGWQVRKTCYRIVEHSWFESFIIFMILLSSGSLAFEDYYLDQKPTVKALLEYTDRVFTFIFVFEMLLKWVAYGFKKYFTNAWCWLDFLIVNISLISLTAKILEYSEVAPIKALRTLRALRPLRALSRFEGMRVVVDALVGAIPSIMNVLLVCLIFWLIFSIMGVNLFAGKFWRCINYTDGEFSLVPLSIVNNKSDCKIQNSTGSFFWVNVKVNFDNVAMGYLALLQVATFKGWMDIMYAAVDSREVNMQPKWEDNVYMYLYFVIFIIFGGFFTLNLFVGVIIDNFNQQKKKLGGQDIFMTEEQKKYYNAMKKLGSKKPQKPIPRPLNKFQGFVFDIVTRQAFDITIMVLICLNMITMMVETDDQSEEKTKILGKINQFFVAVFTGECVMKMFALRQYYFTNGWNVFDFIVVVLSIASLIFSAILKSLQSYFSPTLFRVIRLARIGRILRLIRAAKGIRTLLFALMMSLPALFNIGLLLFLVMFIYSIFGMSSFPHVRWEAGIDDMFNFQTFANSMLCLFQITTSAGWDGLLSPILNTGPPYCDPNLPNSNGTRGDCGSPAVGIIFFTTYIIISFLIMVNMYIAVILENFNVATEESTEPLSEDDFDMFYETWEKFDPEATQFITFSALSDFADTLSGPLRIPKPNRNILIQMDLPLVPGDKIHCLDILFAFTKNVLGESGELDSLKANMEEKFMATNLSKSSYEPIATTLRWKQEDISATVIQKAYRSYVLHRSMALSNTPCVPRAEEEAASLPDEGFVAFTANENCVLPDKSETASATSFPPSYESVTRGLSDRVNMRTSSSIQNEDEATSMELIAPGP

In the case of `COc1cc(F)c(F)cc1Oc1ncc(C(F)(F)F)cc1C(=O)Nc1cccc(S(C)(=N)=O)c1` (stereo not drawn) [Compound 1617], the pIC50 is, setting by setting: under setting [1], 7.40 to 7.70; under setting [2], 7.40 to 7.70.

Consider `COc1c(Oc2ncc(C(F)(F)F)cc2C(=O)Nc2cccc(S(C)(=N)=O)c2)ccc(F)c1Cl` (stereo not drawn) [Compound 1618], for which the pIC50 is, setting by setting: under setting [1], at least 7.70; under setting [2], at least 7.70.

Turning to `COc1c(Oc2ncc(C(F)(F)F)cc2C(=O)Nc2cccc(C(N)=O)c2)ccc(F)c1F` [Compound 1619], the pIC50 was at least 7.70 under setting [1] and at least 7.70 under setting [2].

For the compound `COc1ccc(C#N)cc1Oc1ncc(C(F)(F)F)cc1C(=O)Nc1cccc(S(C)(=N)=O)c1` (stereo not drawn) [Compound 1620], the pIC50 is 6.30 to 6.70 under setting [1] and 6.30 to 6.70 under setting [2].

As for `COc1cc(C)c(Oc2ncc(C(F)(F)F)cc2C(=O)Nc2cccc(S(C)(=N)=O)c2)cc1C#N` (stereo not drawn) [Compound 1621], the pIC50 was 6.30 to 6.70 under setting [1] and 6.30 to 6.70 under setting [2].

Turning to `COc1ncc(C(N)=O)cc1Oc1ncc(C(F)(F)F)cc1C(=O)Nc1cccc(S(C)(=N)=O)c1` (stereo not drawn) [Compound 1622], the pIC50 was 6.30 to 6.70 under setting [1] and 6.30 to 6.70 under setting [2].

In the case of `COc1ncc(C#N)cc1Oc1ncc(C(F)(F)F)cc1C(=O)Nc1cccc(S(C)(=N)=O)c1` (stereo not drawn) [Compound 1623], the pIC50 under setting [1] is 6.30 to 6.70 and the pIC50 under setting [2] is 6.30 to 6.70.

`Cn1ccc2c(Oc3ncc(C(F)(F)F)cc3C(=O)Nc3cccc(S(C)(=O)=O)c3)cccc21` [Compound 1624]: the pIC50 under setting [1] is 6.30 to 6.70 and the pIC50 under setting [2] is 6.30 to 6.70.

With `Cc1ccc2c(Oc3ncc(C(F)(F)F)cc3C(=O)Nc3cccc(S(C)(=O)=O)c3)cccc2n1` [Compound 1625], the pIC50 runs as follows: under setting [1], 6.30 to 6.70; under setting [2], 6.30 to 6.70.

`CS(=O)(=O)c1cccc(NC(=O)c2cc(C(F)(F)F)cnc2Oc2cccc3c2OCCC3)c1` [Compound 1626]: the pIC50 runs as follows: under setting [1], 6.30 to 6.70; under setting [2], 6.30 to 6.70.

For the compound `CS(=O)(=O)c1cccc(NC(=O)c2cc(C(F)(F)F)cnc2OCC23CC(F)(C2)C3)c1` [Compound 1629], the pIC50 under setting [1] was 6.70 to 7.40 and the pIC50 under setting [2] was 6.70 to 7.40.

With `COc1c(Oc2ncc(C(F)(F)F)cc2C(=O)Nc2cccc(S(C)(=N)=O)c2)ccc(F)c1F` (stereo not drawn) [Compound 1630], the pIC50 reads like this: under setting [1], at least 7.70; under setting [2], at least 7.70.

With `CS(=N)(=O)c1cccc(NC(=O)c2cc(C(F)(F)F)cnc2OCC23CC(C#N)(C2)C3)c1` (stereo not drawn) [Compound 1631], the pIC50 by setting is: under setting [1], 6.30 to 6.70; under setting [2], 6.30 to 6.70.

Consider `CS(=N)(=O)c1cccc(NC(=O)c2cc(C(F)(F)F)cnc2OC2CC3(C2)CC(F)(F)C3)c1` (stereo not drawn) [Compound 1632], for which the pIC50 under setting [1] is 6.30 to 6.70 and the pIC50 under setting [2] is 6.30 to 6.70.

Regarding `CS(=N)(=O)c1cccc(NC(=O)c2cc(C(F)(F)F)cnc2OC23CC(C(F)(F)F)(C2)C3)c1` (stereo not drawn) [Compound 1633], the pIC50 is 6.30 to 6.70 under setting [1] and 6.70 to 7.40 under setting [2].

In the case of `NC(=O)c1cccc(NC(=O)c2cc(C(F)(F)F)cnc2OC23CC(C(F)(F)F)(C2)C3)c1` [Compound 1634], the pIC50 under setting [1] was 6.30 to 6.70 and the pIC50 under setting [2] was 6.30 to 6.70.

Consider `NC(=O)c1cccc(NC(=O)c2cc(C(F)(F)F)cnc2Oc2ccc(OC(F)F)cc2)c1` [Compound 1635], for which the pIC50 under setting [1] was 6.70 to 7.40 and the pIC50 under setting [2] was 6.70 to 7.40.

For `CS(=N)(=O)c1cccc(NC(=O)c2cc(C(F)(F)F)cnc2Oc2cccnc2OC(F)(F)F)c1` (stereo not drawn) [Compound 1636], the pIC50 reads like this: under setting [1], at least 7.70; under setting [2], at least 7.70.

In the case of `COc1cc(F)c(Oc2ncc(C(F)(F)F)cc2C(=O)Nc2cccc(S(C)(=N)=O)c2)cc1F` (stereo not drawn) [Compound 1637], the pIC50 reads like this: under setting [1], 6.30 to 6.70; under setting [2], 6.30 to 6.70.

Turning to `COc1cc(F)c(Oc2ncc(C(F)(F)F)cc2C(=O)Nc2cccc(C(N)=O)c2)cc1F` [Compound 1638], the pIC50 reads like this: under setting [1], 6.30 to 6.70; under setting [2], 6.30 to 6.70.

Consider `COc1nc(C)c(Oc2ncc(C(F)(F)F)cc2C(=O)Nc2cccc(S(C)(=N)=O)c2)cc1F` (stereo not drawn) [Compound 1639], for which the pIC50 runs as follows: under setting [1], 6.30 to 6.70; under setting [2], 6.30 to 6.70.

As for `COc1ccc(Oc2ncc(C(F)(F)F)cc2C(=O)Nc2cccc(S(C)(=N)=O)c2)cc1F` (stereo not drawn) [Compound 1640], the pIC50 under setting [1] is 6.30 to 6.70 and the pIC50 under setting [2] was 6.30 to 6.70.

Regarding `CS(=N)(=O)c1cccc(NC(=O)c2cc(C(F)(F)F)cnc2Oc2ccc(OC(F)F)c(F)c2)c1` (stereo not drawn) [Compound 1644], the pIC50 under setting [1] was at least 7.70 and the pIC50 under setting [2] is at least 7.70.

For `COc1cc(Oc2ncc(C(F)(F)F)cc2C(=O)Nc2cccc(S(C)(=N)=O)c2)ccc1C#N` (stereo not drawn) [Compound 1645], the pIC50 is, setting by setting: under setting [1], 6.30 to 6.70; under setting [2], 6.30 to 6.70.

`CS(=N)(=O)c1cccc(NC(=O)c2cc(C(F)(F)F)cnc2Oc2ccc(OC(F)F)nc2)c1` (stereo not drawn) [Compound 1646]: the pIC50 is 6.70 to 7.40 under setting [1] and 6.70 to 7.40 under setting [2].

With `CC(C)Oc1ccc(Oc2ncc(C(F)(F)F)cc2C(=O)Nc2cccc(S(C)(=N)=O)c2)cc1F` (stereo not drawn) [Compound 1647], the pIC50 by setting is: under setting [1], at least 7.70; under setting [2], at least 7.70.

For the compound `CS(=N)(=O)c1cccc(NC(=O)c2cc(C(F)(F)F)cnc2Oc2ccc(Br)cc2C2CC2)c1` (stereo not drawn) [Compound 1648], the pIC50 reads like this: under setting [1], at least 7.70; under setting [2], at least 7.70.

Regarding `CC(C)Oc1ccc(Oc2ncc(C(F)(F)F)cc2C(=O)Nc2ccc(-c3ncc[nH]3)cc2)c(F)c1F` [Compound 1649], the pIC50 is 6.30 to 6.70 under setting [1] and 6.30 to 6.70 under setting [2].

For `Cc1cc(F)ccc1Oc1nccc(C(F)(F)F)c1C(=O)Nc1cccc(S(C)(=N)=O)c1` (stereo not drawn) [Compound 1650], the pIC50 by setting is: under setting [1], 6.70 to 7.40; under setting [2], 6.70 to 7.40.

As for `COc1c(Oc2nccc(C(F)(F)F)c2C(=O)Nc2cccc(S(C)(=N)=O)c2)ccc(F)c1F` (stereo not drawn) [Compound 1651], the pIC50 is, setting by setting: under setting [1], at least 7.70; under setting [2], at least 7.70.

Take `COc1c(Oc2nccc(C(F)(F)F)c2C(=O)Nc2cccc(C(N)=O)c2)ccc(F)c1F` [Compound 1652]: the pIC50 is 7.40 to 7.70 under setting [1] and 7.40 to 7.70 under setting [2].

Take `COc1cc(C#N)ccc1Oc1nccc(C(F)(F)F)c1C(=O)Nc1cccc(S(C)(=N)=O)c1` (stereo not drawn) [Compound 1653]: the pIC50 by setting is: under setting [1], 6.70 to 7.40; under setting [2], 6.70 to 7.40.

As for `COc1nc(C#N)ccc1Oc1ncc(C(F)(F)F)cc1C(=O)Nc1cccc([S@](C)(=N)=O)c1` [Compound 1655], the pIC50 runs as follows: under setting [1], at least 7.70; under setting [2], at least 7.70.

Turning to `CSc1cccc(Oc2ncc(C(F)(F)F)cc2C(=O)Nc2cccc(S(C)(=O)=O)c2)c1` [Compound 1656], the pIC50 under setting [1] was 6.70 to 7.40 and the pIC50 under setting [2] is 6.70 to 7.40.

As for `CS(=O)(=O)c1cccc(NC(=O)c2cc(C(F)(F)F)cnc2Oc2cccc(OC(F)(F)F)c2)c1` [Compound 1657], the pIC50 is 6.30 to 6.70 under setting [1] and 6.30 to 6.70 under setting [2].

`CS(=O)(=O)c1cccc(NC(=O)c2cc(C(F)(F)F)cnc2Oc2cc(OC(F)(F)F)ccc2F)c1` [Compound 1658]: the pIC50 was 6.70 to 7.40 under setting [1] and 6.30 to 6.70 under setting [2].

As for `CS(=O)(=O)c1cccc(NC(=O)c2cc(C(F)(F)F)cnc2OCC2CC2(F)F)c1` (stereo not drawn) [Compound 1659], the pIC50 under setting [1] was 6.70 to 7.40 and the pIC50 under setting [2] was 6.70 to 7.40.

In the case of `CS(=O)(=O)c1cccc(NC(=O)c2cc(C(F)(F)F)cnc2OC2CCC(F)(F)CC2)c1` [Compound 1660], the pIC50 under setting [1] was 6.70 to 7.40 and the pIC50 under setting [2] is 6.70 to 7.40.

On to `CS(=O)(=O)c1cccc(NC(=O)c2cc(C(F)(F)F)cnc2Oc2ccc(OC(F)(F)F)cc2F)c1` [Compound 1661], for which the pIC50 is at least 7.70 under setting [1] and at least 7.70 under setting [2].

Turning to `CS(=O)(=O)c1cccc(NC(=O)c2cc(C(F)(F)F)cnc2OC2CCOC2)c1` (stereo not drawn) [Compound 1662], the pIC50 was 6.30 to 6.70 under setting [1] and 6.30 to 6.70 under setting [2].

`CS(=O)(=O)c1cccc(NC(=O)c2cc(C(F)(F)F)cnc2OCC(F)F)c1` [Compound 1663]: the pIC50 was 6.30 to 6.70 under setting [1] and 6.30 to 6.70 under setting [2].

`CC(C)(O)c1ccc(Oc2ncc(C(F)(F)F)cc2C(=O)Nc2cccc(S(C)(=O)=O)c2)c(F)c1` [Compound 1664]: the pIC50 under setting [1] is 6.30 to 6.70 and the pIC50 under setting [2] was 6.30 to 6.70.

With `CS(=N)(=O)c1cccc(NC(=O)c2cc(C(F)(F)F)cnc2OC2CC(C#N)C2)c1` (stereo not drawn) [Compound 1665], the pIC50 was 6.30 to 6.70 under setting [1] and 6.30 to 6.70 under setting [2].

For `Cc1nc(OC2CCC2)ccc1Oc1ncc(C(F)(F)F)cc1C(=O)Nc1cccc(S(C)(=N)=O)c1` (stereo not drawn) [Compound 1669], the pIC50 by setting is: under setting [1], 6.70 to 7.40; under setting [2], 6.70 to 7.40.

As for `CS(=N)(=O)c1cccc(NC(=O)c2cc(C(F)(F)F)cnc2OC2CC3C(C2)C3(F)F)c1` (stereo not drawn) [Compound 1672], the pIC50 reads like this: under setting [1], 6.30 to 6.70; under setting [2], 6.30 to 6.70.

Turning to `NC(=O)c1ccc(NC(=O)c2cc(C(F)(F)F)cnc2OC2CC3C(C2)C3(F)F)cc1` (stereo not drawn) [Compound 1673], the pIC50 runs as follows: under setting [1], 6.30 to 6.70; under setting [2], 6.30 to 6.70.

Take `CS(=N)(=O)c1cccc(NC(=O)c2cc(C(F)(F)F)cnc2Oc2ccc(C(F)F)nc2)c1` (stereo not drawn) [Compound 1674]: the pIC50 runs as follows: under setting [1], 6.30 to 6.70; under setting [2], 6.30 to 6.70.

On to `NC(=O)c1cccc(NC(=O)c2cc(C(F)(F)F)cnc2Oc2ccc(C(F)F)nc2)c1` [Compound 1675], for which the pIC50 is 6.30 to 6.70 under setting [1] and 6.30 to 6.70 under setting [2].

For the compound `NC(=O)c1ccc(NC(=O)c2cc(C(F)(F)F)cnc2Oc2ccc(C(F)F)nc2)cc1` [Compound 1676], the pIC50 is, setting by setting: under setting [1], 6.30 to 6.70; under setting [2], 6.30 to 6.70.

As for `NC(=O)c1cccc(NC(=O)c2cc(C(F)(F)F)cnc2OC2CC3C(C2)C3(F)F)c1` (stereo not drawn) [Compound 1677], the pIC50 by setting is: under setting [1], 6.30 to 6.70; under setting [2], 6.30 to 6.70.

Take `COC(=O)C12CC(NC(=O)c3cc(C(F)(F)F)cnc3Oc3ccc(C#N)cc3OC)(C1)C2` [Compound 1678]: the pIC50 by setting is: under setting [1], 6.30 to 6.70; under setting [2], 6.30 to 6.70.
